Test results from US20150105252A1, “SUBSTITUTED PYRAZOLES AS HERBICIDES” (E I DU PONT DE NEMOURS AND COMPANY, priority 2013, published 2015).

Tests used:
corn = assay: Test A postemergence; type: in vivo, Zea mays
In short: (§1)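 Growth medium: loam soil blended with sand. Preemergence treatment used a directed soil spray right after planting; postemergence treatment targeted seedlings at one to two leaves (2–10 cm height). Response was judged by eye relative to untreated plants about 10 days later on a 0–100 control scale.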

Italian ryegrass [1] = assay: Test A preemergence; type: in vivo, Lolium multiflorum
Source text: (§2) Seeds of plant species selected from barnyardgrass (Echinochloa crus-galli), kochia (Kochia scoparia), common ragweed (Ambrosia elation), Italian ryegrass (Lolium multiflorum), crabgrass, large (large crabgrass, Digitaria sanguinalis), foxtail, giant (giant foxtail, Setaria faberii), morningglory (Ipomoea spp.), pigweed (redroot pigweed, Amaranthus retroflexus), velvetleaf (Abutilon theophrasti), wheat (Triticum aestivum), and corn (Zea mays) were planted into a blend of loam soil and sand and treated preemergence with a directed soil spray using test chemicals formulated in a non-phytotoxic solvent mixture which included a surfactant.
(§3) At the same time, plants selected from these crop and weed species and also blackgrass (Alopecurus myosuroides), and galium (catchweed bedstraw, Galium aparine) were planted in pots containing the same blend of loam soil and sand and treated with postemergence applications of test chemicals formulated in the same manner. Plants ranged in height from 2 to 10 cm and were in the one- to two-leaf stage for the postemergence treatment. Treated plants and untreated controls were maintained in a greenhouse for approximately 10 days, after which time all treated plants were compared to untreated controls and visually evaluated for injury. Plant response ratings, summarized in Table A, are based on a 0 to 100 scale where 0 is no effect and 100 is complete control. A dash (-) response means no test result.

barnyardgrass [2] = assay: Test A postemergence; type: in vivo, Echinochloa crus-galli
In short: as §1

barnyardgrass [3] = assay: Test A preemergence; type: in vivo, Echinochloa crus-galli; details: preemergence
In short: as §1

wheat = assay: Test A postemergence; type: in vivo, Triticum aestivum
In short: as §1

Italian ryegrass [4] = assay: Test A postemergence; type: in vivo, Lolium multiflorum
Source text: as §2, §3

common ragweed [5] = assay: Test A preemergence; type: in vivo, Ambrosia elation
Source text: as §2, §3

kochia [6] = assay: Test A postemergence; type: in vivo, Kochia scoparia
Source text: as §2, §3

rice = assay: Test B flood; type: in vivo, Oryza sativa; details: 250 g ai/ha, visual rating on 0 to 100 scale (0 no effect, 100 complete control), 13 to 15 days
In short: (§4)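 Flooded-pot test: compound dosed into 3 cm of standing water above soil when plants had two leaves. Visual control ratings (0–100) versus untreated plants after 13–15 d.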

galium = assay: Test A postemergence; type: in vivo, Galium aparine
Source text: as §2, §3

pigweed [7] = assay: Test A postemergence; type: in vivo, Amaranthus retroflexus
In short: as §1

sedge, umbrella = assay: Test B flood; type: in vivo, Cyperus difformis; details: 250 g ai/ha, visual rating on 0 to 100 scale (0 no effect, 100 complete control), 13 to 15 days
In short: as §4

pigweed [8] = assay: Test A preemergence; type: in vivo, Amaranthus retroflexus; details: preemergence
In short: as §1

foxtail, giant [9] = assay: Test A preemergence; type: in vivo, Setaria faberii; details: preemergence
In short: as §1

foxtail, giant [10] = assay: Test A postemergence; type: in vivo, Setaria faberii
In short: as §1

blackgrass = assay: Test A postemergence; type: in vivo, Alopecurus myosuroides
Source text: as §2, §3

barnyardgrass [11] = assay: Test B flood; type: in vivo, Echinochloa crus-galli; details: 250 g ai/ha, visual rating on 0 to 100 scale (0 no effect, 100 complete control), 13 to 15 days
In short: as §4

common ragweed [12] = assay: Test A postemergence; type: in vivo, Ambrosia elation
Source text: as §2, §3

kochia [13] = assay: Test A preemergence; type: in vivo, Kochia scoparia
Source text: as §2, §3

ducksalad = assay: Test B flood; type: in vivo, Heteranthera limosa; details: 250 g ai/ha, visual rating on 0 to 100 scale (0 no effect, 100 complete control), 13 to 15 days
In short: as §4

[14] = Postemergence, 500 g ai/ha, 0 to 100 scale (0 no effect, 100 complete control)
[15] = postemergence, 125 g ai/ha, about 10 days, visual rating on 0 to 100 scale (0 no effect, 100 complete control)
[16] = 125 g ai/ha, visual injury, 0 to 100 scale, approx. 10 days
[17] = 500 g ai/ha, visual injury after approx. 10 days, 0 to 100 scale (0 no effect, 100 complete control)

| SMILES | Corn plant response rating (corn; [14]) | Corn plant response rating (corn; [15]) | Italian Ryegrass plant response rating (Italian ryegrass [1]; [16]) | Italian Ryegrass plant response rating (Italian ryegrass [1]; [17]) | Barnyardgrass plant response rating (barnyardgrass [2]; [14]) | Barnyardgrass plant response rating (barnyardgrass [2]; [15]) | Barnyardgrass plant response rating (barnyardgrass [3]; [16]) | Barnyardgrass plant response rating (barnyardgrass [3]; [17]) | Wheat plant response rating (wheat; [14]) | Wheat plant response rating (wheat; [15]) | Italian Ryegrass plant response rating (Italian ryegrass [4]; [14]) | Italian Ryegrass plant response rating (Italian ryegrass [4]; [15]) | Common Ragweed plant response rating (common ragweed [5]; [16]) | Kochia plant response rating (kochia [6]; [14]) | Kochia plant response rating (kochia [6]; [15]) | Plant response rating, Rice (rice) | Galium plant response rating (galium; [14]) | Galium plant response rating (galium; [15]) | Pigweed plant response rating (pigweed [7]; [14]) | Pigweed plant response rating (pigweed [7]; [15]) | also measured |
| --- | --- | --- | --- | --- | --- | --- | --- | --- | --- | --- | --- | --- | --- | --- | --- | --- | --- | --- | --- | --- | --- |
| CCCNC(=O)c1cc(CC)n(Cc2cc(C(F)(F)F)no2)n1 [Compound 122] | 60 | 20 | 0 | 30 | 70 | 0 | 0 | 100 | 10 | 0 | 50 | 10 | 10 | 90 | 50 | 30 | 70 | 10 | 40 | 30 | Plant response rating, Sedge, Umbrella (sedge, umbrella): 50; Pigweed plant response rating (pigweed [8]; [16]): 60; Pigweed plant response rating (pigweed [8]; [17]): 100; Foxtail, Giant plant response rating (foxtail, giant [9]; [16]): 20; Foxtail, Giant plant response rating (foxtail, giant [9]; [17]): 100; Foxtail, Giant plant response rating (foxtail, giant [10]; [14]): 90; Foxtail, Giant plant response rating (foxtail, giant [10]; [15]): 0; Blackgrass plant response rating (blackgrass; [14]): 80; Blackgrass plant response rating (blackgrass; [15]): 10; Plant response rating, Barnyardgrass (barnyardgrass [11]): 20; Common Ragweed plant response rating (common ragweed [12]; [14]): 30; Common Ragweed plant response rating (common ragweed [12]; [15]): 10; Kochia plant response rating (kochia [13]; [16]): 10; Kochia plant response rating (kochia [13]; [17]): 90; Plant response rating, Ducksalad (ducksalad): 50 |
| CCCNC(=O)c1cc(CC)n(Cc2cc(OC(F)F)nn2C)n1 [Compound 134] | 30 | 10 | 0 | 10 | 30 | 10 | 0 | 90 | 10 | 0 | 10 | 0 | 10 | 90 | 60 | 0 | 70 | 30 | 90 | 40 | Common Ragweed plant response rating (common ragweed [5]; [17]): 80; Plant response rating, Sedge, Umbrella (sedge, umbrella): 0; Pigweed plant response rating (pigweed [8]; [16]): 20; Pigweed plant response rating (pigweed [8]; [17]): 100; Foxtail, Giant plant response rating (foxtail, giant [9]; [16]): 20; Foxtail, Giant plant response rating (foxtail, giant [9]; [17]): 100; Foxtail, Giant plant response rating (foxtail, giant [10]; [14]): 70; Foxtail, Giant plant response rating (foxtail, giant [10]; [15]): 10; Blackgrass plant response rating (blackgrass; [14]): 50; Blackgrass plant response rating (blackgrass; [15]): 10; Plant response rating, Barnyardgrass (barnyardgrass [11]): 0; Common Ragweed plant response rating (common ragweed [12]; [14]): 30; Common Ragweed plant response rating (common ragweed [12]; [15]): 20; Kochia plant response rating (kochia [13]; [16]): 80; Kochia plant response rating (kochia [13]; [17]): 100; Plant response rating, Ducksalad (ducksalad): 0 |
| CCCCNC(=O)c1cc(CC)n(Cc2cc(OC(F)F)nn2C)n1 [Compound 135] | 20 | 10 | 0 | 0 | 10 | 10 | 0 | 0 | 0 | 0 | 0 | 0 | 0 | 100 | 70 | 0 | 50 | 20 | 40 | 10 | Common Ragweed plant response rating (common ragweed [5]; [17]): 0; Plant response rating, Sedge, Umbrella (sedge, umbrella): 0; Pigweed plant response rating (pigweed [8]; [16]): 0; Pigweed plant response rating (pigweed [8]; [17]): 50; Foxtail, Giant plant response rating (foxtail, giant [9]; [16]): 0; Foxtail, Giant plant response rating (foxtail, giant [9]; [17]): 50; Foxtail, Giant plant response rating (foxtail, giant [10]; [14]): 10; Foxtail, Giant plant response rating (foxtail, giant [10]; [15]): 0; Blackgrass plant response rating (blackgrass; [14]): 20; Blackgrass plant response rating (blackgrass; [15]): 0; Plant response rating, Barnyardgrass (barnyardgrass [11]): 0; Common Ragweed plant response rating (common ragweed [12]; [14]): 30; Common Ragweed plant response rating (common ragweed [12]; [15]): 10; Kochia plant response rating (kochia [13]; [16]): 70; Kochia plant response rating (kochia [13]; [17]): 100; Plant response rating, Ducksalad (ducksalad): 0 |
| CCc1cc(C(=O)NC(C)C)nn1Cc1cc(OC(F)F)nn1C [Compound 137] | 30 | 10 | 0 | 40 | 60 | 0 | 10 | 70 | 10 | 0 | 20 | 0 | 10 | 90 | 50 | 0 | 80 | 50 | 80 | 50 | Common Ragweed plant response rating (common ragweed [5]; [17]): 100; Plant response rating, Sedge, Umbrella (sedge, umbrella): 30; Pigweed plant response rating (pigweed [8]; [16]): 60; Pigweed plant response rating (pigweed [8]; [17]): 100; Foxtail, Giant plant response rating (foxtail, giant [9]; [16]): 20; Foxtail, Giant plant response rating (foxtail, giant [9]; [17]): 80; Foxtail, Giant plant response rating (foxtail, giant [10]; [14]): 70; Foxtail, Giant plant response rating (foxtail, giant [10]; [15]): 10; Blackgrass plant response rating (blackgrass; [14]): 50; Blackgrass plant response rating (blackgrass; [15]): 10; Plant response rating, Barnyardgrass (barnyardgrass [11]): 0; Common Ragweed plant response rating (common ragweed [12]; [14]): 30; Common Ragweed plant response rating (common ragweed [12]; [15]): 10; Kochia plant response rating (kochia [13]; [16]): 30; Kochia plant response rating (kochia [13]; [17]): 100; Plant response rating, Ducksalad (ducksalad): 30 |
